Experimental findings from publication PMC9603181, “RNA-Dependent RNA Polymerase of the Second Human Pegivirus Exhibits a High-Fidelity Feature” (Microbiology Spectrum, 2022) are described below.

Format in all cases: biochemical
For assay [1], the target named is T1, HCV NS5B (HCV RdRp) (Orthohepacivirus hominis, UniProt A0A140D8J5).
T1 construct: NS5B residues 1-570 (SMSY to ARFR) of the genome polyprotein, C-terminal truncation, C-terminal His6 tag kept, pET-26b, E. coli BL21(DE3)
Put plainly: two-step single-nucleotide-incorporation assay, urea-PAGE, Stain-All. The following applies: T32 RNA template, pGG primer, pH 6.5, 30 C; sof-TP dose response from 50 uM; UTP analogue, chain terminator.

The target of assay [2] is T2, HPgV-2 NS5B (HPgV-2 RdRp) (Human hepegivirus, UniProt A0A2L0ARU6).
T2 construct: NS5B residues 1-551 (QSYN to GASR) of the genome polyprotein, C-terminal truncation, C-terminal His6 tag kept, pET-26b, E. coli BL21(DE3)
In words: two-step single-nucleotide-incorporation assay, time course, urea-PAGE, Stain-All. The following applies: T30/pGG, CTP 500 uM as only step 2 substrate, Mg2+/Mn2+, pH 6.5, 30 C.

Assay [3] has as its target T1, HCV NS5B (HCV RdRp). The description is as above. The following applies: T30/pGG, CTP 500 uM as only step 2 substrate, no Mn2+, pH 6.5, 30 C.

Turning to `C[C@@]1(F)[C@H](O)[C@@H](COP(=O)(O)OP(=O)(O)OP(=O)(O)O)O[C@H]1n1ccc(=O)[nH]c1=O` [PSI-7409], the “two-step single-nucleotide-incorporation assay, urea-PAGE, Stain-All” value at HCV NS5B (HCV RdRp) [1] is reported as “a clear P9S band was observed in the presence of HCV NS5B”.
In the case of `Nc1ccn([C@@H]2O[C@H](COP(=O)(O)OP(=O)(O)OP(=O)(O)O)[C@@H](O)[C@H]2O)c(=O)n1` [CTP], the “two-step single-nucleotide-incorporation assay, time course, urea-PAGE, Stain-Al” value is “no significant difference in the synthesis of the correct P10 between HCV and HPgV-2 NS5B” in assay [2]; “no significant difference in the synthesis of the correct P10 between HCV and HPgV-2 NS5B” at HCV NS5B (HCV RdRp) [3].
